From PMC5976239 (Journal of medicinal chemistry, 2017)
Converted amounts (≈) assume the structure as drawn. Read-outs that look alike come from different tables or passages of the source.

Legend:
[1] = tested on: C. albicans ATCC 10231 (strain A); assay: Membrane permeabilization assay using propidium iodide staining; type: cell-based, Candida albicans; details: 1 h at 35 °C; 20 and 26 at 4 × MIC, KANB (C14) at 2 × MIC ([…]), FLC at 7.8 µg/mL
[2] = tested on: C. albicans ATCC MYA-2310(S) (E); assay: MIC determination by in vitro antifungal assay; type: cell-based; details: Candida albicans, 48 h
[3] = tested on: C. albicans ATCC 90819(R) (D); assay: MIC determination by in vitro antifungal assay; type: cell-based; details: Candida albicans, ATCC90819, 48 h
[4] = tested on: C. albicans ATCC 64124(R) (B); assay: MIC determination by in vitro antifungal assay; type: cell-based; details: Candida albicans, ATCC64124, 48 h
[5] = tested on: C. albicans ATCC MYA-2876(S) (C); assay: MIC determination by in vitro antifungal assay; type: cell-based; details: Candida albicans, 48 h
Hemolytic activity assay = type: cell-based; details: mouse, murine red blood cells (mRBCs)
HEK-293 = assay: In vitro cytotoxicity assay; type: cell-based; details: 24 h, 18 and 20 at 7.8 µg/mL
[6] = tested on: Candida albicans ATCC 10231 (A); assay: MIC determination by in vitro antifungal assay; type: cell-based; details: ATCC10231, 48 h, read-out: MIC (MIC-0)
[7] = tested on: Aspergillus nidulans ATCC 38163 (L); assay: MIC determination against filamentous fungi; type: cell-based; details: ATCC38163, 48 h, read-out: MIC (MIC-0)
[8] = tested on: C. albicans ATCC MYA-1237(R) (F); assay: MIC determination by in vitro antifungal assay; type: cell-based; details: Candida albicans, 48 h
[9] = tested on: Aspergillus terreus ATCC MYA-3633 (M); assay: MIC determination against filamentous fungi; type: cell-based; details: 48 h, read-out: MIC (MIC-0)
BEAS-2B = assay: In vitro cytotoxicity assay; type: cell-based; details: 24 h, 18 and 20 at 7.8 µg/mL
A549 = assay: In vitro cytotoxicity assay; type: cell-based; details: 24 h
[10] = tested on: Aspergillus flavus ATCC MYA-3631 (K); assay: MIC determination against filamentous fungi; type: cell-based; details: 48 h, read-out: MIC (MIC-0)
[11] = tested on: C. albicans ATCC MYA-1003(R) (G); assay: MIC determination by in vitro antifungal assay; type: cell-based; details: Candida albicans, 48 h
[12] = tested on: Candida albicans ATCC 10231 (A); assay: MIC determination in the presence and absence of FBS; type: cell-based; details: for antifungal activity in the presence of FBS (in words): strains A, J, and L, +10% FBS versus no FBS; for MIC: Candida albicans, ATCC10231, read-out: MIC, Candida albicans ATCC 10231 (A) (no FBS)
[13] = tested on: C. albicans ATCC 64124 (strain B) biofilms; assay: Biofilm assay
[14] = tested on: Aspergillus nidulans ATCC 38163 (L); assay: MIC determination in the presence and absence of FBS; type: cell-based; details: ATCC38163, read-out: MIC, Aspergillus nidulans ATCC 38163 (L) (no FBS)
[15] = tested on: C. albicans, non-albicans Candida, and Aspergillus strains; assay: Antifungal activity over the panel of 13 fungal strains; type: cell-based; details: read-out: antifungal activity class based on MIC values
[16] = tested on: C. albicans ATCC 10231 (strain A); assay: Time-kill assay; type: cell-based, Candida albicans; details: 24 h, compound 20 at 4× MIC, VOR at 1× and 4× MIC
[17] = tested on: C. glabrata ATCC 2001 (strain H); assay: Time-kill assay; type: cell-based, Candida glabrata; details: 24 h, compound 22 at 4× MIC, VOR at 1× and 4× MIC
[18] = tested on: C. parapsilosis ATCC 22019 (strain J); assay: Time-kill assay; type: cell-based, Candida parapsilosis; details: 24 h, at up to 8× MIC

Structure (SMILES)	propidium iodide (PI) dye uptake by fungal cells [1]	toxicity to mammalian cells (in words) (HEK-293)	MIC [6]	MIC [7]	MIC ([8]; read-out: MIC (MIC-0))	MIC [9]	toxicity to mammalian cells (in words) (BEAS-2B)	toxicity to mammalian cells (in words) (A549)	MIC [10]	MIC ([11]; read-out: MIC (MIC-0))	MIC ([2]; read-out: MIC (MIC-0))	MIC ([3]; read-out: MIC (MIC-0))	MIC ([4]; read-out: MIC (MIC-0))	MIC ([5]; read-out: MIC (MIC-0))	hemolysis at 60 min, 7.8 µg/mL (Hemolytic activity assay)	increase in MIC in biofilms (SMIC50 and SMIC80 versus MIC in liquid cultures) [13]	further results
CCCCCCCCCCCCCCOC[C@H]1O[C@H](O[C@@H]2[C@@H](O)[C@H](O[C@H]3O[C@H](CN)[C@@H](O)[C@H](O)[C@H]3N)[C@@H](N)C[C@H]2N)[C@H](O)[C@@H](N)[C@@H]1O [KANB (C14), reference compound]	significantly increased PI dye uptake	–	–	–	–	–	–	–	–	–	–	–	–	–	–	–	–
OC(Cn1cncn1)(Cn1cncn1)c1ccc(F)cc1F [FLC, fluconazole, reference compound]	did not allow for PI uptake	–	–	–	–	–	–	–	–	–	–	–	–	–	–	–	MIC ([2]; read-out: MIC (MIC-2)): > 125 µg/mL; MIC ([3]; read-out: MIC (MIC-2)): > 125 µg/mL; MIC ([4]; read-out: MIC (MIC-2)): > 125 µg/mL; MIC ([5]; read-out: MIC (MIC-2)): 15.6 µg/mL (≈ 50.9 µM)
CCCCCCCCN1CCN(CC(O)(Cn2cncn2)c2ccc(F)cc2F)CC1 (stereo not shown) [Compound 18, 2-(2,4-Difluorophenyl)-1-(1H-1,2,4-triazol-1-yl)-3-(4-octylpiperazine)propan-2-ol]	–	some toxicity	3.9 µg/mL (≈ 8.95 µM)	3.9 µg/mL (≈ 8.95 µM)	31.3 µg/mL (≈ 71.9 µM)	3.9 µg/mL (≈ 8.95 µM)	some toxicity	nontoxic to A549 at up to 15.5 µg/mL	1.95 µg/mL (≈ 4.48 µM)	0.975 to 31.3 µg/mL (≈ 2.24 to 71.9 µM)	> 31.3 µg/mL	15.6 µg/mL (≈ 35.8 µM)	31.3 µg/mL (≈ 71.9 µM)	31.3 µg/mL (≈ 71.9 µM)	–	–	hemolysis at 60 min, 62.5 µg/mL (Hemolytic activity assay): < 10%
CCCCCCCCCCCCCCN1CCN(CC(O)(Cn2cncn2)c2ccc(F)cc2F)CC1 (stereo not shown) [Compound 24, 2-(2,4-Difluorophenyl)-1-(1H-1,2,4-triazol-1-yl)-3-(4-tetradecylpiperazine)propan-2-ol]	–	–	1.95 µg/mL (≈ 3.75 µM)	1.95 µg/mL (≈ 3.75 µM)	3.9 µg/mL (≈ 7.5 µM)	0.975 µg/mL (≈ 1.88 µM)	–	–	0.48 µg/mL (≈ 0.924 µM)	1.95 µg/mL (≈ 3.75 µM)	3.9 µg/mL (≈ 7.5 µM)	1.95 µg/mL (≈ 3.75 µM)	31.3 µg/mL (≈ 60.2 µM)	7.8 µg/mL (≈ 15 µM)	> 50%	–	–
CCCCCCCCCCN1CCN(CC(O)(Cn2cncn2)c2ccc(Cl)cc2Cl)CC1 (stereo not shown) [Compound 25, 2-(2,4-Dichlorophenyl)-1-(1H-1,2,4-triazol-1-yl)-3-(4-decylpiperazine)propan-2-ol]	–	–	–	–	7.8 µg/mL (≈ 15.7 µM)	–	–	–	–	7.8 µg/mL (≈ 15.7 µM)	7.8 µg/mL (≈ 15.7 µM)	–	–	7.8 µg/mL (≈ 15.7 µM)	22%	1–2 fold	antifungal activity in the presence of FBS (in words) [12]: retained their full antifungal activity
CCCCCCCCCCCCN1CCN(CC(O)(Cn2cncn2)c2ccc(Cl)cc2Cl)CC1 (stereo not shown) [Compound 26, 2-(2,4-Dichlorophenyl)-1-(1H-1,2,4-triazol-1-yl)-3-(4-dodecylpiperazine)propan-2-ol]	neither compound 20 nor 26 (at 4 × MIC) induced cellular uptake of PI dye	–	–	–	–	–	–	–	–	–	–	–	7.8 µg/mL (≈ 14.9 µM)	–	85%	2–4 fold	antifungal activity in the presence of FBS (in words) [12]: retained their full antifungal activity
CN1CCN(CC(O)(Cn2cncn2)c2ccc(F)cc2F)CC1 (stereo not shown) [Compound 16]	–	–	7.8 µg/mL (≈ 23.1 µM)	0.975 µg/mL (≈ 2.89 µM)	31.3 µg/mL (≈ 92.8 µM)	31.3 µg/mL (≈ 92.8 µM)	–	–	31.3 µg/mL (≈ 92.8 µM)	31.3 µg/mL (≈ 92.8 µM)	7.8 µg/mL (≈ 23.1 µM)	31.3 µg/mL (≈ 92.8 µM)	31.3 µg/mL (≈ 92.8 µM)	7.8 µg/mL (≈ 23.1 µM)	–	–	hemolysis at 60 min, 62.5 µg/mL (Hemolytic activity assay): < 10%
CCCCCCCCCCCCCCN1CCNCC1 [Compound 9, 1-Tetradecyl Piperazine]	–	toxic	0.975 µg/mL (≈ 3.45 µM)	0.975 µg/mL (≈ 3.45 µM)	1.95 µg/mL (≈ 6.9 µM)	0.975 µg/mL (≈ 3.45 µM)	toxic	toxic	0.975 µg/mL (≈ 3.45 µM)	1.95 µg/mL (≈ 6.9 µM)	0.975 µg/mL (≈ 3.45 µM)	1.95 µg/mL (≈ 6.9 µM)	0.975 µg/mL (≈ 3.45 µM)	0.975 µg/mL (≈ 3.45 µM)	93%	16–64 fold	MIC [12]: 0.975 µg/mL (≈ 3.45 µM); MIC [14]: 0.975 µg/mL (≈ 3.45 µM); MIC [15]: 0.015 to 1.95 µg/mL (≈ 0.0531 to 6.9 µM)
C[C@@H](c1ncncc1F)[C@](O)(Cn1cncn1)c1ccc(F)cc1F [VOR, voriconazole, reference compound]	–	–	–	–	–	–	–	–	–	–	–	–	–	–	–	–	fungistatic or fungicidal activity (time-kill) [16]: fungistatic; MIC ([8]; read-out: MIC (MIC-2)): 7.8 µg/mL (≈ 22.3 µM); fungistatic or fungicidal activity (time-kill) [17]: fungistatic; MIC ([11]; read-out: MIC (MIC-2)): 1.95 µg/mL (≈ 5.58 µM); MIC ([2]; read-out: MIC (MIC-2)): 0.975 µg/mL (≈ 2.79 µM); MIC ([3]; read-out: MIC (MIC-2)): 1.95 µg/mL (≈ 5.58 µM); MIC ([4]; read-out: MIC (MIC-2)): 3.9 µg/mL (≈ 11.2 µM); MIC ([5]; read-out: MIC (MIC-2)): 1.95 µg/mL (≈ 5.58 µM)
CCCCCCCCCCN1CCN(CC(O)(Cn2cncn2)c2ccc(F)cc2F)CC1 (stereo not shown) [Compound 20, 2-(2,4-Difluorophenyl)-1-(1H-1,2,4-triazol-1-yl)-3-(4-decylpiperazine)propan-2-ol]	neither compound 20 nor 26 (at 4 × MIC) induced cellular uptake of PI dye	some toxicity	–	–	–	–	some toxicity	no toxicity at up to 7.8 µg/mL	0.24 µg/mL (≈ 0.518 µM)	3.9 µg/mL (≈ 8.41 µM)	–	3.9 µg/mL (≈ 8.41 µM)	3.9 µg/mL (≈ 8.41 µM)	–	–	4–16 fold	antifungal activity in the presence of FBS (in words) [12]: retained their full antifungal activity; fungistatic or fungicidal activity (time-kill) [16]: fungicidal; fungistatic or fungicidal activity (time-kill) [18]: fungistatic
CCCCCCCCCCCCN1CCNCC1 [Compound 7]	–	toxic	1.95 µg/mL (≈ 7.66 µM)	1.95 µg/mL (≈ 7.66 µM)	–	–	toxic	toxic	–	–	–	–	–	–	52%	1–4 fold	MIC [12]: 1.95 µg/mL (≈ 7.66 µM); MIC [14]: 1.95 µg/mL (≈ 7.66 µM)
C[C@@H]1[C@H](O)[C@@H](C)/C=C/C=C/C=C/C=C/C=C/C=C/C=C/[C@H](O[C@@H]2O[C@H](C)[C@@H](O)[C@H](N)[C@@H]2O)C[C@@H]2O[C@](O)(C[C@@H](O)C[C@@H](O)[C@H](O)CC[C@@H](O)C[C@@H](O)CC(=O)O[C@H]1C)C[C@H](O)[C@H]2C(=O)O [AmB, amphotericin B, reference compound]	–	–	3.9 µg/mL (≈ 4.22 µM)	3.9 µg/mL (≈ 4.22 µM)	–	3.9 µg/mL (≈ 4.22 µM)	–	–	–	3.9 µg/mL (≈ 4.22 µM)	–	0.975 µg/mL (≈ 1.06 µM)	3.9 µg/mL (≈ 4.22 µM)	–	–	–	MIC [12]: 3.9 µg/mL (≈ 4.22 µM); MIC [14]: 3.9 µg/mL (≈ 4.22 µM)
